# Data published in PubChem BioAssay (NCI).
#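 Where inhibition never reached the appropriate level, the endpoint shown equals the highest concentration tested. Otherwise, values were interpolated linearly from a five-concentration, 48-hour dose response in 96-well plates. GI50 = concentration required for 50% inhibition of growth. TGI denotes the concentration required for complete inhibition of growth.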
# Key:
# Assay in all cases: NCI tumour cell line growth inhibition, 48 h
# CAKI-1 renal = tested on: CAKI-1 renal
# HCT-15 colon = tested on: HCT-15 colon
# PC-3 prostate = tested on: PC-3 prostate
# COLO 205 colon = tested on: COLO 205 colon
# SNB-75 CNS = tested on: SNB-75 CNS
# SR leukemia = tested on: SR leukemia
# HCT-116 colon = tested on: HCT-116 colon
# UACC-62 melanoma = tested on: UACC-62 melanoma
# EKVX NSCLC = tested on: EKVX NSCLC
# OVCAR-4 ovarian = tested on: OVCAR-4 ovarian
# NCI-H23 lung = tested on: NCI-H23 lung
# NCI-H226 lung = tested on: NCI-H226 lung
# MCF7 breast = tested on: MCF7 breast
# NCI/ADR-RES ovarian = tested on: NCI/ADR-RES ovarian
# HOP-62 NSCLC = tested on: HOP-62 NSCLC
# M14 melanoma = tested on: M14 melanoma
# HT29 colon = tested on: HT29 colon
# SK-MEL-5 melanoma = tested on: SK-MEL-5 melanoma
# SK-OV-3 ovarian = tested on: SK-OV-3 ovarian
# A549 NSCLC = tested on: A549 NSCLC
# SNB-19 CNS = tested on: SNB-19 CNS
# BT-549 breast = tested on: BT-549 breast
# LOX IMVI melanoma = tested on: LOX IMVI melanoma
# MDA-MB-231 breast = tested on: MDA-MB-231 breast
# IGROV1 ovarian = tested on: IGROV1 ovarian
# OVCAR-8 ovarian = tested on: OVCAR-8 ovarian
# ACHN renal = tested on: ACHN renal
# SF-539 CNS = tested on: SF-539 CNS
# RXF 393 renal = tested on: RXF 393 renal
structure (smiles),measurement,setting,value
CC[C@]12C=CCN3CC[C@]4(C(=C(C(=O)OC)C1)Nc1cc5c(cc14)[C@@H]1[C@H](O5)[C@@H](O)[C@@]4(CC)CC(C(=O)OC)=C5Nc6cc(O)ccc6[C@@]56CCN1C46)C32 (stereo partly specified),GI50,CAKI-1 renal,39.8 nM
same,TGI,CAKI-1 renal,1590 nM
same,GI50,HCT-15 colon,92.7 nM
same,TGI,HCT-15 colon,358 nM
same,GI50,PC-3 prostate,128 nM
same,TGI,PC-3 prostate,8000 nM
same,GI50,COLO 205 colon,119 nM
same,TGI,COLO 205 colon,619 nM
same,GI50,SNB-75 CNS,369 nM
same,TGI,SNB-75 CNS,> 50000 nM
same,GI50,SR leukemia,40.1 nM
same,TGI,SR leukemia,4280 nM
same,GI50,HCT-116 colon,72.7 nM
same,TGI,HCT-116 colon,597 nM
same,GI50,UACC-62 melanoma,85.9 nM
same,TGI,UACC-62 melanoma,40300 nM
same,GI50,EKVX NSCLC,239 nM
same,TGI,EKVX NSCLC,> 24500 nM
same,GI50,OVCAR-4 ovarian,213 nM
same,TGI,OVCAR-4 ovarian,> 50000 nM
same,GI50,NCI-H23 lung,165 nM
same,TGI,NCI-H23 lung,1650 nM
same,GI50,NCI-H226 lung,179 nM
same,GI50,MCF7 breast,27 nM
same,TGI,MCF7 breast,> 50000 nM
same,GI50,NCI/ADR-RES ovarian,293 nM
same,TGI,NCI/ADR-RES ovarian,> 50000 nM
same,GI50,HOP-62 NSCLC,136 nM
same,TGI,HOP-62 NSCLC,> 15300 nM
same,GI50,M14 melanoma,109 nM
same,TGI,M14 melanoma,9550 nM
same,GI50,HT29 colon,153 nM
same,TGI,HT29 colon,1830 nM
same,GI50,SK-MEL-5 melanoma,217 nM
same,TGI,SK-MEL-5 melanoma,> 15300 nM
same,GI50,SK-OV-3 ovarian,172 nM
same,TGI,SK-OV-3 ovarian,1060 nM
same,GI50,A549 NSCLC,259 nM
same,TGI,A549 NSCLC,9990 nM
same,GI50,SNB-19 CNS,210 nM
same,TGI,SNB-19 CNS,> 25600 nM
same,GI50,BT-549 breast,168 nM
same,TGI,BT-549 breast,1300 nM
same,GI50,LOX IMVI melanoma,59.7 nM
same,TGI,LOX IMVI melanoma,135 nM
same,GI50,MDA-MB-231 breast,94.3 nM
same,TGI,MDA-MB-231 breast,40200 nM
same,GI50,IGROV1 ovarian,112 nM
same,GI50,OVCAR-8 ovarian,166 nM
same,TGI,OVCAR-8 ovarian,> 16000 nM
same,GI50,ACHN renal,153 nM
same,TGI,ACHN renal,1100 nM
same,GI50,SF-539 CNS,181 nM
same,TGI,SF-539 CNS,8140 nM
same,GI50,RXF 393 renal,162 nM
same,TGI,RXF 393 renal,977 nM
